Read-outs that look alike come from different tables or passages of the source.

Series [1] relates to HBV viral load in AD38 cells. As to the kind of experiment: Viral load production in AD38 cells, quantitative PCR of the core sequence in supernatant. The format is cell-based. The conditions noted are these: Hepatitis B virus, 144 h, 6 days incubation. As to the method:
(§1) Assay Measuring Activity of Compounds on Viral Production in and on Viability of AD38 Cells
(§2) AD38 cells grown in a 175 cm flask with “Growth Medium” (DMEM/F12 (1:1) (cat #SH30023.01, Hyclone, 1×Pen/step (cat #: 30-002-CL, Mediatech, Inc), 10% FBS (cat #: 101, Tissue Culture Biologics), 250 μg/mL G418 (cat #: 30-234-CR, Mediatech, Inc), 1 μg/mL Tetracycline (cat #: T3325, Teknova)) were detached with 0.25% trypsin. Tetracycline-free “treatment medium” (15 mL DMEM/F12 (1:1) (cat #SH30023.01, Hyclone, 1×Pen/step (cat #: 30-002-CL, Mediatech, Inc), with 2% FBS, Tet-system approved (cat #: 631106, Clontech) were then added to mix and spun at 1300 rpm for 5 min. Pelleted cells were then re-suspended/washed with 50 mL of 1×PBS 2 times and 10 mL Treatment Medium one time. AD38 cells were then re-suspended with 10 mL of Treatment Medium and counted. Wells of a collagen coated 96-well NUNC microtiter plate were seeded at 50,000/well in 180 μL of Treatment Medium, and 20 μL of in treatment media with either 10% DMSO (Control) or a 10× solution of compound in 10% DMSO was added. Plates were incubated for 6 days at 37° C.
Viral load production was assayed by quantitative PCR of the core sequence. Briefly, 5 μL of clarified supernatant was added to a PCR reaction mixture that contained forward primers HBV-f 5′-CTGTGCCTTGGGTGGCTTT-3′, Reverse primers HBV-r 5′-[…]-3′ and Fluorescent TaqMan™ Probes HBV-probe 5′-FAM/AGCTCCAAA/ZEN/[…]/3IABkFQ-3′ in Quanta Biosciences PerfeCTa® qPCR Toughmix®, and was subsequently on an Applied Biosystems VIIA7 in a final volume of 20 μL. The PCR mixture was incubated at 45° C. for 5 minutes, then 95° C. for 10 min, followed by 40 cycles of 10 seconds at 95° C. and 20 seconds at 60° C. Viral load was quantitated against known standards by using ViiA™ 7 Software. Viral load in the supernatant from wells with treated cells were compared against viral load in supernatant from DMSO control wells (≥3 per plate).

For a further series, the system named is AD38 cells. As to the kind of experiment: Viability of AD38 cells, Promega CellTiter-Glo. It is filed as cell-based. The conditions noted are these: 6 days incubation, controls being 100%; for AD38 Viability Normalized Result (CPAM/DMSO %) at 10 μM: Table 6, compounds of Group 4. As to the method:
as §1, §2
At the end of compound treatment period cell viability was assessed using a Promega CellTiter-Glo protocol. All supernatant was removed the previously treated 96-well microtiter plate, and 50 μL Tetracycline-free treatment medium (DMEM/F12 (1:1), 1×Pen/step (cat #: 30-002-CL, Mediatech, Inc), with 2% FBS, Tet-system approved (cat #: 631106, Clontech), and 1% DMSO was added back to each well. Another 50 μL of CellTiter-Glo reagent solution (Promega, G7573) was then added at room temperature and the contents mixed for 2 minutes on an orbital shaker to induce cell lysis. This was followed by incubation at room temperature for 10 minutes to stabilize the luminescent signal. The luminescence was recorded for 0.2 seconds per well on a Tecan multimode platereader (Infinite M1000 pro). The luminescent signal from each well was normalized against that of untreated (DMSO) control wells. All results in Tables 3-6 were reported with percent viability (with controls being 100%).

Where [2] appears, read: Table 4, compounds of Group 2, read-out: AD38 Viral Load (%) (VL with cmpd/VL in DMSO control) at 10 μM.
The mark [3] stands for this setting: Table 3, compounds of Group 1, read-out: AD38 Viral Load (%) (VL with cmpd/VL in DMSO control) at 10 μM.
[4] abbreviates: Table 5, compounds of Group 3, read-out: AD38 Viral Load (%) (VL with cmpd/VL in DMSO control) at 10 μM.
The mark [5] stands for this setting: Table 6, compounds of Group 4, read-out: AD38 Viral Load (CpAM/DMSO %) at 10 μM.

Take `N#Cc1ccc(-c2ncc(CNC(=O)c3ccc4c(c3)NC(=O)[C@H]3CCCCN3S4(=O)=O)s2)c(F)c1` (single isomer, unassigned) [C25-02-Isomer II]: the activity at 10 µM in series [1] (setting [2]) was determined as 0.6%. In addition, the “AD38 Viability Normalized Result (cmpd/DMSO %) at 10 μM” value in the series with AD38 cells (Table 4, compounds of Group 2) came out at 111%.
Turning to `N#Cc1ccc(-c2ncc(CNC(=O)c3ccc4c(c3)NC(=O)[C@@H]3CCCCN3S4(=O)=O)s2)c(F)c1` (single isomer, unassigned) [C25-02-Isomer I], in series [1] (setting [2]), the activity at 10 µM came to 3%. Besides, the “AD38 Viability Normalized Result (cmpd/DMSO %) at 10 μM” value with AD38 cells (Table 4, compounds of Group 2) came out at 108%.
For `O=C(NCc1cnc(-n2cccn2)s1)c1ccc2c(c1)NC(=O)[C@H]1CCCCN1S2(=O)=O` (single isomer, unassigned) [C25-04-Isomer II] the same measures were 1.7% and 99%.
In the case of `O=C(NCc1cnc(-n2cccn2)s1)c1ccc2c(c1)NC(=O)[C@@H]1CCCCN1S2(=O)=O` (single isomer, unassigned) [C25-04-Isomer I], in series [1] (setting [2]), the activity at 10 µM amounted to 8.3%. Further, in the series on AD38 cells (Table 4, compounds of Group 2), the “AD38 Viability Normalized Result (cmpd/DMSO %) at 10 μM” value came to 104%.
For the compound `Cc1ncc(CNC(=O)c2ccc3c(c2)NC(=O)c2ccncc2S3)s1` [Compound 576], the activity at 10 µM in series [1] (setting [2]) was 11.7%. In addition, the “AD38 Viability Normalized Result (cmpd/DMSO %) at 10 μM” value in the series on AD38 cells (Table 4, compounds of Group 2) amounted to 98%.
The like results for `O=C(NCc1cnc(-c2ccccc2)s1)c1ccc2c(c1)NC(=O)c1ccncc1S2` [Compound 578] were, in that order, 3% and 100%.
For the compound `O=C(NCc1cnc(-c2ccc(O)cc2)s1)c1ccc2c(c1)NC(=O)c1ccncc1S2` [Compound 762], in series [1] (setting [2]), the activity at 10 µM stood at 45.6%. Also, the “AD38 Viability Normalized Result (cmpd/DMSO %) at 10 μM” value in the series on AD38 cells (Table 4, compounds of Group 2) was 102%.
Take `O=C1CCC(c2ncc(CNC(=O)c3ccc4c(c3)NC(=O)c3ccccc3S4(=O)=O)s2)CC1` [Compound 818, 11-oxo-N-((2-(4-oxocyclohexyl)thiazol-5-yl)methyl)-10,11-dihydrodibenzo[b,f][1,4]thiazepine-8-carboxamide 5,5-dioxide]: the activity at 10 µM in series [1] (setting [3]) came to 1.3%. In addition, in the series with AD38 cells (Table 3, compounds of Group 1), the “AD38 Viability Normalized Result (cmpd/DMSO %) at 10 μM” value is 84%.
Regarding `Cl.NC1CCC(Cc2ncc(CNC(=O)c3ccc4c(c3)NC(=O)c3ccccc3S4(=O)=O)s2)CC1` (stereo not drawn) [Compound 884, N-((2-((4-aminocyclohexyl)methyl)thiazol-5-yl)methyl)-11-oxo-10,11-dihydrodibenzo[b,f][1,4]thiazepine-8-carboxamide 5,5-dioxide hydrochloride], in series [1] (setting [3]), the activity at 10 µM worked out at 15.1%. In addition, the “AD38 Viability Normalized Result (cmpd/DMSO %) at 10 μM” value with AD38 cells (Table 3, compounds of Group 1) is 94%.
The like results for `O=C(NCc1cnc(C2CCC(O)CC2)s1)c1ccc2c(c1)NC(=O)c1ccccc1S2(=O)=O` (stereo not drawn) [Compound 924, N-((2-(4-hydroxycyclohexyl)thiazol-5-yl)methyl)-11-oxo-10,11-dihydrodibenzo[b,f][1,4]thiazepine-8-carboxamide 5,5-dioxide] were, in that order, 0.7% and 95%.
For `CC(C)(C)OC(=O)N1CCC(c2ncc(CNC(=O)c3ccc4c(c3)NC(=O)c3ccccc3S4(=O)=O)s2)CC1` [Compound 926-A] the same measures were 3.6% and 98%.
Take `O=C(NCc1cnc(CN2CCOCC2)s1)c1ccc2c(c1)NC(=O)c1ccccc1S2(=O)=O` [Compound 927]: the activity at 10 µM in series [1] (setting [3]) is 4.7%. In addition, in the series on AD38 cells (Table 3, compounds of Group 1), the “AD38 Viability Normalized Result (cmpd/DMSO %) at 10 μM” value was determined as 92%.
Consider `CC1(C)CCC(c2ncc(CNC(=O)c3ccc4c(c3)NC(=O)c3ccccc3S4(=O)=O)s2)C1` (stereo not drawn) [Compound 979], for which, in series [1] (setting [3]), the activity at 10 µM was 0.5%. The “AD38 Viability Normalized Result (cmpd/DMSO %) at 10 μM” value in the series on AD38 cells (Table 3, compounds of Group 1) amounted to 59%.
Consider `O=C1CCC(c2ncc(CNC(=O)c3ccc4c(c3)NC(=O)c3ccccc3S4(=O)=O)s2)C1` (stereo not drawn) [Compound 980-A, 11-oxo-N-((2-(3-oxocyclopentyl)thiazol-5-yl)methyl)-10,11-dihydrodibenzo[b,f][1,4]thiazepine-8-carboxamide 5,5-dioxide], for which the activity at 10 µM in series [1] (setting [3]) worked out at 1.2%. Further, in the series on AD38 cells (Table 3, compounds of Group 1), the “AD38 Viability Normalized Result (cmpd/DMSO %) at 10 μM” value worked out at 97%.
For the compound `COC1(OC)CCC(c2ncc(CNC(=O)c3ccc4c(c3)NC(=O)c3ccccc3S4(=O)=O)s2)C1` (stereo not drawn) [Compound 980-B, N-((2-(3,3-dimethoxycyclopentyl)thiazol-5-yl)methyl)-11-oxo-10,11-dihydrodibenzo[b,f][1,4]thiazepine-8-carboxamide 5,5-dioxide], in series [1] (setting [3]), the activity at 10 µM turned out to be 0.9%. In addition, in the series with AD38 cells (Table 3, compounds of Group 1), the “AD38 Viability Normalized Result (cmpd/DMSO %) at 10 μM” value amounted to 93%.
`O=C(NCc1cnc(C(F)(F)F)s1)c1ccc2c(c1)NC(=O)c1ccncc1S2(=O)=O` [Compound 1020]: the activity at 10 µM in series [1] (setting [2]) was 6.1%. Moreover, the “AD38 Viability Normalized Result (cmpd/DMSO %) at 10 μM” value in the series with AD38 cells (Table 4, compounds of Group 2) is reported as 97%.
For `N#Cc1ccc(-c2ncc(CNC(=O)c3ccc4c(c3)NC(=O)c3ccncc3S4(=O)=O)s2)c(F)c1` [Compound 1021] the same measures were 0.3% and 96%.
As for `C[C@H](N)C(=O)N1CCC(c2ncc(CNC(=O)c3ccc4c(c3)NC(=O)c3ccccc3S4(=O)=O)s2)CC1.Cl` [Compound 1034, N-((2-(1-(L-alanyl)piperidin-4-yl)thiazol-5-yl)methyl)-11-oxo-10,11-dihydrodibenzo[b,f][1,4]thiazepine-8-carboxamide 5,5-dioxide hydrochloride], in series [1] (setting [3]), the activity at 10 µM turned out to be 67.7%. In addition, in the series with AD38 cells (Table 3, compounds of Group 1), the “AD38 Viability Normalized Result (cmpd/DMSO %) at 10 μM” value was 106%.
For the compound `Cc1c(C(=O)NCc2cnn(-c3nccs3)c2)ccc2c1NC(=O)c1ccccc1S2(=O)=O` [Compound 1153, 9-methyl-11-oxo-N-((1-(thiazol-2-yl)-1H-pyrazol-4-yl)methyl)-10,11-dihydrodibenzo[b,f][1,4]thiazepine-8-carboxamide 5,5-dioxide], in series [1] (setting [4]), the activity at 10 µM amounted to 2.1%. The “AD38 Viability Normalized Result (cmpd/DMSO %) at 10 μM” value with AD38 cells (Table 5, compounds of Group 3) is listed as 92%.
Regarding `O=C(NCc1cnn(-c2nccs2)c1)c1ccc2c(c1)NC(=O)c1ccccc1S2(=O)=O` [Compound 1155, 11-oxo-N-((1-(thiazol-2-yl)-1H-pyrazol-4-yl)methyl)-10,11-dihydrodibenzo[b, f][1,4]thiazepine-8-carboxamide 5,5-dioxide], in series [1] (setting [4]), the activity at 10 µM was 0.6%. For the same compound, the “AD38 Viability Normalized Result (cmpd/DMSO %) at 10 μM” value in the series with AD38 cells (Table 5, compounds of Group 3) is 104%.
For `CC1=C(C)C(=O)Nc2cc(C(=O)NCc3cnc(C(F)(F)F)s3)ccc2O1` [Compound C1-01], the activity at 10 µM in series [1] (setting [2]) turned out to be 27.9%. Moreover, in the series on AD38 cells (Table 4, compounds of Group 2), the “AD38 Viability Normalized Result (cmpd/DMSO %) at 10 μM” value was 106%.
As to `CC1=C(C)C(=O)Nc2cc(C(=O)NCc3cnc(-c4ccc(C#N)cc4F)s3)ccc2O1` [Compound C1-02], the activity at 10 µM in series [1] (setting [2]) is 20.4%. In addition, the “AD38 Viability Normalized Result (cmpd/DMSO %) at 10 μM” value with AD38 cells (Table 4, compounds of Group 2) is on record as 103%.
Take `Cc1cc(=O)[nH]c2cc(C(=O)NCc3cnc(C(F)(F)F)s3)ccc12` [Compound C2-01, 4-Methyl-2-oxo-N-((2-(trifluoromethyl)thiazol-5-yl)methyl)-1,2-dihydroquinoline-7-carboxamide]: the activity at 10 µM in series [1] (setting [5]) amounted to 69.7%. In addition, the “AD38 Viability Normalized Result (CPAM/DMSO %) at 10 μM” value in the series on AD38 cells was 113%.
With `CC(C)c1cc(=O)[nH]c2cc(C(=O)NCc3cnc(C(F)(F)F)s3)ccc12` [Compound C3-01, 4-Isopropyl-2-oxo-N-((2-(trifluoromethyl)thiazol-5-yl)methyl)-1,2-dihydroquinoline-7-carboxamide], in series [1] (setting [5]), the activity at 10 µM was 44.6%. In the series on AD38 cells, the “AD38 Viability Normalized Result (CPAM/DMSO %) at 10 μM” value amounted to 105%.
